Our source for the Ki values is BindingDB's records for doi:10.7270/Q2QR4VJR (Nmmlsc, 2010).

The structures appear in SMILES notation.

The assay has as its target T1, Regulator of G-protein signaling 16 (Homo sapiens, UniProt O15492).
T1 sequence (O15492 whole entry): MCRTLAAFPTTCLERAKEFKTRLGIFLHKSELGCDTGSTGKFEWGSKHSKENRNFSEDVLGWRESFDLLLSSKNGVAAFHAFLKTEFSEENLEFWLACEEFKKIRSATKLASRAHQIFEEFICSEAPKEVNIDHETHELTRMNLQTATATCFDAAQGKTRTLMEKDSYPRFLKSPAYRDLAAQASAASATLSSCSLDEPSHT
In words: small molecules altering RGS16 interaction with Galphao – biochemical, multiplexed bead flow cytometry, SAR compounds, SAR follow-up (AID 2298).

What is called Ki is a dissociation constant, usually derived from enzyme kinetics or from competition with a known ligand. Read a low Ki as higher affinity. On to `NS(=O)(=O)c1ccc(N=NCc2ccc(O)c(O)c2O)c([N+](=O)[O-])c1` [4-[[(E)-(2,3-dihydroxy-4-oxo-1-cyclohexa-2,5-dienylidene)methyl]hydrazo]-3-nitrobenzenesulfonamide], for which the Ki was found to be 20 nM.

The molecule `O=C1C(Cl)=C(N2CCCCC2)C(=O)C(Cl)=C1c1cnc(N2CCCCC2)s1` [MLS000550549] registered a Ki of 100 nM.
